From patent publication US4760089A, “Irreversible dopamine-β-hydroxylase inhibitors” (SmithKline Beckman Corporation, priority 1985, dated 1988)
Structures can show the parent of a compound that is named as a salt. Where two headings read alike, the source gives them in different places.

Tests used:
[1] = biological target: T1, dopamine-β-hydroxylase (DBH) (Bos taurus, UniProt P15101); assay: Dialysis of enzyme-inhibitor complexes to test reversibility of DBH inhibition; type: biochemical; conditions: for activity at 1000 µM: tyramine alone = 100%; for Amount of Product Formed Pre-Dialysis: approx. 3 hour incubation with DBH; for Amount of Product Formed Post-Dialysis: dialyzed overnight, pH 5.5 acetate buffer
T1 sequence (P15101 1-610): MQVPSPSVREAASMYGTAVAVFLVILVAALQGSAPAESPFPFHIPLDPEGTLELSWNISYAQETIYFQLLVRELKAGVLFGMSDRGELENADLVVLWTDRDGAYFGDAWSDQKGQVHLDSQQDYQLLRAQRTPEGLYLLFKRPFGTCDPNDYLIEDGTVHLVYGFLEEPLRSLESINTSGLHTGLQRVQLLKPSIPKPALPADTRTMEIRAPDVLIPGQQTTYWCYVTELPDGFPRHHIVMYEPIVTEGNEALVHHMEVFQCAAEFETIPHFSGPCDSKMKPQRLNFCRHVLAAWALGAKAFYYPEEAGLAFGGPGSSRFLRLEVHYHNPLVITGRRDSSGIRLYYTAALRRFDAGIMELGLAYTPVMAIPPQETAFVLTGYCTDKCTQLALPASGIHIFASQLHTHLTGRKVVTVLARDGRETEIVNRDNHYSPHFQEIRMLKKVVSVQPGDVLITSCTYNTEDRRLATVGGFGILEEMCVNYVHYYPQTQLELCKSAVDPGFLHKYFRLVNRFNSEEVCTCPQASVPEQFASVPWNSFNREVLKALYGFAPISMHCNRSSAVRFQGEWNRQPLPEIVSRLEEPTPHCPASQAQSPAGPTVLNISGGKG
Experimental: (§1) Presently invented also are methods of producing DBH inhibition in mammals, including humans, by administering an effective amount of 2-cyano-2-phenethylamine or a 2-cyano-2-(hydroxyphenyl)ethylamine compound. […] DBH activity was assayed by a standard procedure for measuring the conversion of tyramine to octopamine in the presence of DBH. J. J. Pisano, et al., Biochim. Biophy. Acta, 43, 566-68 (1960). Octopamine was assayed following sodium periodate oxidation to p-hydroxybenzaldehyde by measuring spectrophotometric absorbance at 330 nm.
Dialysis of enzyme-inhibitor complexes was selected as the approach for testing the reversibility of the inhibition produced by these compounds. A known, reversible DBH inhibitor, fusaric acid, was utilized as a reference standard. Following approximate 3 hour incubation of DBH with one of the inhibitors, the rate of enzymatic conversion of tyramine to octopamine was measured by the standard procedure used in the enzyme kinetic analyses. Thereafter, the enzyme previously incubated with inhibitor was placed in a standard dialysis bag and dialyzed overnight against four changes of pH 5.5 acetate buffer. Following dialysis, the rate of enzymatic conversion of tyramine to octopamine again was measured.

[2] = test system: peripheral dopamine (DA) and norepinephrine (NE) levels; assay: In vivo effect on peripheral dopamine and norepinephrine levels; parameters: species or system spontaneously hypertensive rats; conditions: twice; for DA / NE: per gram of tissue, about 2 hours after second dose
Experimental: One of the 2-cyano-2-phenethylamine compounds also was tested for its effect in vivo on peripheral dopamine (DA) and norepinephrine (NE) levels substantially by the procedure of DaPrada and Zurcher, Life Sciences, 19, 1161, (1976). Groups of five spontaneously hypertensive rats were dosed orally, twice, the second dose approximately 18 hours after the first, and were sacrificed about 2 hours after the second dose.

[3] = biological target: T1, dopamine-β-hydroxylase (DBH); assay: DBH enzyme inhibition kinetics, conversion of tyramine to octopamine; type: biochemical; conditions: several inhibitor concentrations
Experimental: as §1
Further, the changing apparent rate constant and the unchanging maxiumum reaction rate indicate that the compounds useful in the presently invented method initially are competitive blockers of substrate-enzyme interactions.

[4] = test system: spontaneously hypertensive rats; assay: Mean arterial blood pressure in spontaneously hypertensive rats; type: in vivo; conditions: 100 mg/kg intraperitoneally
Experimental: Further, spontaneously hypertensive rats were dosed with a suspension or solution of 2-cyano-2-phenethylamine hydrochloride at a dose of 100 mg/kg intraperitoneally, and mean arterial blood pressure was monitored for 260 minutes using indwelling cannulae positioned in the tail arteries. Approximate thirty percent reductions in blood pressure were observed thirty to forty minutes following administration of this compound. At 260 minutes after administration of this compound, blood pressure remained reduced by approximately twenty percent when compared to vehicle-treated controls.

[5] = Teresawa et al., Japan. Cir. J. 35, 339 (1971); cited from earlier work
DBH = conditions: Runti et al., Il Farmaco Ed. Sci. 36, 260 (1980); cited from earlier work
[6] = Tyramine 10^-2 M and inhibitor 10^-3 M
[7] = Tyramine 10^-2 M and Fusaric Acid 10^-4 M

Question: Which activity at 1000 µM ([1]; 3 h, Tyramine 10^-2 M and inhibitor 10^-3 M, read-out: DBH Activity Pre-Dialysis) does the source give for N#CC(CN)c1ccccc1 (stereo not shown) [2-cyano-2-phenethylamine hydrochloride] here?
Answer: 8%

Question: What about the “Amount of Product Formed Pre-Dialysis” value [1, 6] of the same compound?
Answer: 15.7 nM

Question: And the “Amount of Product Formed Post-Dialysis” value [1, 6]?
Answer: 10.5 nM

Question: And the activity at 1000 µM ([1]; Tyramine 10^-2 M and inhibitor 10^-3 M, read-out: DBH Activity Post-Dialysis)?
Answer: 5.5%

Question: What about the “DA/NE Ratio” value ([2]; Experiment 1, 100 mg/kg orally) of the same compound?
Answer: 0.0716 ± 0.004

Question: And the DA ([2]; Experiment 1, 100 mg/kg orally)?
Answer: 0.571 µg/g

Question: And the NE ([2]; Experiment 1, 100 mg/kg orally)?
Answer: 7.96 µg/g

Question: What about the “DA/NE Ratio” value ([2]; Experiment 2, 100 mg/kg orally) of the same compound?
Answer: 0.0628 ± 0.0013

Question: And the DA ([2]; Experiment 2, 100 mg/kg orally)?
Answer: 0.408 µg/g

Question: And the NE ([2]; Experiment 2, 100 mg/kg orally)?
Answer: 6.47 µg/g

Question: What about the “DBH activity versus inhibitor concentration (FIG. 1, double-reciprocal plot)” value [3] of the same compound?
Answer: reductions in DBH activity were related directly to increasing 2-cyano-2-phenethylamine hydrochloride concentrations

Question: And the “reduction in mean arterial blood pressure compared to vehicle-treated controls” value ([4]; at 260 minutes after administration)?
Answer: approximately twenty

Question: And the “reduction in mean arterial blood pressure” value ([4]; thirty to forty minutes following administration)?
Answer: thirty

Question: What does the source list for CCCCc1ccc(C(=O)O)nc1 [Fusaric Acid, reference compound]?
Answer: activity at 100 µM ([1]; 3 h, read-out: DBH Activity Pre-Dialysis): 2%; Amount of Product Formed Pre-Dialysis [1, 7]: 4.0 nM; Amount of Product Formed Post-Dialysis [1, 7]: 169.0 nM; activity at 100 µM ([1]; read-out: DBH Activity Post-Dialysis): 89.2%; DA/NE Ratio ([2]; Experiment 1, 50 mg/kg orally): 0.0994 ± 0.007; DA ([2]; Experiment 1, 50 mg/kg orally): 0.819 µg/g; NE ([2]; Experiment 1, 50 mg/kg orally): 8.31 µg/g; DA/NE Ratio ([2]; Experiment 2, 50 mg/kg orally): 0.112 ± 0.0055; DA ([2]; Experiment 2, 50 mg/kg orally): 0.615 µg/g; NE ([2]; Experiment 2, 50 mg/kg orally): 5.82 µg/g; toxic effect [5]: hepatotoxic

Question: With phenylpicolinic acid as the compound, how does the “DBH inhibitory activity relative to fusaric acid” value (DBH) read?
Answer: twice the inhibitory activity of fusaric acid
